Results on 2 compounds are retold here after paper PMC4657468, “Impaired uptake of conjugated bile acids and hepatitis b virus pres1-binding in na^+-taurocholate cotransporting polypeptide knockout mice” (Hepatology (Baltimore, Md.), 2015).

The conditions of data set [1]: for Serum TCA elimination t½: intravenous bolus 150 μmol TCA/kg with trace tritium-labeled TCA after gallbladder cannulation, one-phase decay, n = 5.
Description: Differences between groups were analyzed using a two-tailed Student t test. […] Results were considered statistically significant at P < 0.05.
Another data set concerns Slc10a1−/− PMHs. In kind it is cell-based, mouse. To be noted: 1 μM Myrcludex B, sodium-dependent as well as sodium-free conditions. An excerpt:
(§1) Bars represent the mean ± SEM for two independent experiments, each performed in triplicate. *P < 0.05. (B) Total serum BA concentrations in male and female WT and Slc10a1^−/− (KO) mice. Data are given as mean ± SEM on a ^10log scale for seven to 16 mice in each group, quantified using the total BA assay. Serum composition of (C) conjugated and (D) unconjugated BA species as quantified using high-pressure liquid chromatography. […] Unconjugated BA (U-BA) concentrations are the sum of ω-muricholic acid, α-muricholic acid, β-muricholic acid, cholic acid, UDCA, chenodeoxycholic acid, and DCA. Data are given as mean ± SEM on a ^10log scale for three to six mice in each group. *P < 0.05 (compared to WT levels). […] Conjugated BA (dark gray) and unconjugated BA (light gray) species are shown as a percentage of total, as quantified using high-pressure liquid chromatography. (F) Total serum BA levels in relation to body weights of WT (open dots) and KO (black dots) 8-week-old mice (n – 11–14). […]
(§2) mouse NTCP antibody in block ing buffer f or 1 hour. Af ter washings, the slides were incubated with goat anti-rabbit Alexa 568 IgG. Images were captured with a Leica SP8X […]
(§3) Primary hepatocyte isolation and sandwich culture
(§4) Primary mouse hepatocytes (PMHs) were isolated from wild- type and Slc10a1 -/- mice by a 2-step collagenase perfusion method. […]

Another data set concerns hepatitis B virus. To be noted: cited from earlier work. An excerpt: (§5) During and after a meal, bile acids (BAs) are released into the small intestine, where they facilitate the absorption of dietary fat and fat-soluble vitamins.[1] The majority of BAs are reabsorbed in the terminal ileum and transported back to the liver through the portal circulation. At the basolateral membranes of the hepatocytes, BAs are taken up from the portal circulation, extruded across the canalicular hepatocyte membrane, and transported to the gallbladder to complete the enterohepatic circulation.[2] Conjugated BAs are transported across the basolateral hepatic membrane through a sodiu ...

Data set [2] has as its system NTCP. The following applies: at high concentrations; cited from earlier work.
Excerpt: as §5

Data set [3] addresses T1, NTCP (Mus musculus, UniProt O08705).
T1 sequence (O08705 1-362): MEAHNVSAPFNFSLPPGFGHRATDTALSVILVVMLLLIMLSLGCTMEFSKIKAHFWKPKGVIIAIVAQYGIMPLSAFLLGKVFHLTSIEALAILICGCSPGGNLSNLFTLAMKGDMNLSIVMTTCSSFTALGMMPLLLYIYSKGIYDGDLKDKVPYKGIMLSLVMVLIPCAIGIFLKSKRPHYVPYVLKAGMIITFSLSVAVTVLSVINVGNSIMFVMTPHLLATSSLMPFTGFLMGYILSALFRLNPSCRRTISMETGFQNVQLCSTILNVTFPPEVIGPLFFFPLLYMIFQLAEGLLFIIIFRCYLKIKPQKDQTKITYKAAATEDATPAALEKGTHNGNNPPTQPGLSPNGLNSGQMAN
The following applies: 1 μM Myrcludex B, 30 min preincubation, WT PMHs, 10 μM TCA, 1 minute.
Excerpt: as §1, §2, §3, §4

Read-outs that look alike come from different tables or passages of the source.

Consider `C[C@H](CCC(=O)NCCS(=O)(=O)O)[C@H]1CC[C@H]2[C@@H]3[C@H](O)C[C@@H]4C[C@H](O)CC[C@]4(C)[C@H]3C[C@H](O)[C@]12C` [TCA, taurocholic acid], for which the “Serum TCA elimination t½” value in data set [1] (WT mice) stood at 1.5 min; in data set [1] (normocholanemic Slc10a1−/− mice) it was 5.3 min. Also, the “Lethality of the high dose of TCA” value in data set [1] (hypercholanemic Slc10a1−/− mice, intravenous bolus 150 μmol TCA/kg, shortly after injection) is reported as “lethal”.
Myrcludex B: in the data set with Slc10a1−/− PMHs, the “Effect on TCA uptake in Slc10a1−/− PMHs” value was “unaffected”. In addition, the “Virus entry mediated by NTCP” value in the data set with hepatitis B virus is on record as “blocked”. Moreover, the “NTCP-mediated BA uptake” value in the data set with NTCP [2] is given as “inhibits NTCP-mediated BA uptake at high concentrations”. Moreover, on NTCP [3] (NMDG buffer), the “Effect on TCA uptake under sodium-free conditions” value is given as “no effect”. Also, the “Effect on sodium-dependent TCA uptake” value at NTCP [3] (sodium-containing buffer) is “abrogated sodium-dependent TCA uptake”.
